Active and inactive are the calls of the source. The rule behind the calls is not given here.
Assays:
[1] = target: Amyloid-beta precursor protein (Homo sapiens) (UniProt P05067); assay: Inhibition of amyloid beta (1 to 42) (unknown origin) aggregation assessed as appearance of thinner aggregates at 50 uM incubated for 48 hrs by TEM imaging analysis
[2] = target: Amyloid-beta precursor protein (Homo sapiens) (UniProt P05067); assay: Inhibition of amyloid beta (1 to 42) (unknown origin) aggregation assessed as maximum peak height of aggregates incubated for 48 hrs by AFM analysis
[3] = target: Amyloid-beta precursor protein (Homo sapiens) (UniProt P05067); assay: Inhibition of amyloid beta (1 to 42) (unknown origin) aggregation assessed as reduction in size of amyloid-beta aggregates measured within 48 hrs by SEM imaging analysis
[4] = target: Amyloid-beta precursor protein (Homo sapiens) (UniProt P05067); assay: Inhibition of amyloid beta (1 to 42) (unknown origin) self aggregation ar 5 to 20 uM incubated for 48 hrs by Thioflavin T fluorescence assay relative to control; details: dose 5-20 µM
[5] = target: Amyloid-beta precursor protein (Homo sapiens) (UniProt P05067); assay: Inhibition of amyloid beta (1 to 42) (unknown origin) aggregation assessed as reduction in amyloid-beta aggregates at 50 uM incubated for 48 hrs by TEM analysis
[6] = target: Acetylcholinesterase (Homo sapiens, UniProt P22303); assay: Inhibition of human erythrocyte AChE using acetylthiocholine iodide as substrate preincubated for 30 mins followed by substrate addition by DTNB based Ellman's colorimetric method
Chain of Acetylcholinesterase (P22303 whole entry): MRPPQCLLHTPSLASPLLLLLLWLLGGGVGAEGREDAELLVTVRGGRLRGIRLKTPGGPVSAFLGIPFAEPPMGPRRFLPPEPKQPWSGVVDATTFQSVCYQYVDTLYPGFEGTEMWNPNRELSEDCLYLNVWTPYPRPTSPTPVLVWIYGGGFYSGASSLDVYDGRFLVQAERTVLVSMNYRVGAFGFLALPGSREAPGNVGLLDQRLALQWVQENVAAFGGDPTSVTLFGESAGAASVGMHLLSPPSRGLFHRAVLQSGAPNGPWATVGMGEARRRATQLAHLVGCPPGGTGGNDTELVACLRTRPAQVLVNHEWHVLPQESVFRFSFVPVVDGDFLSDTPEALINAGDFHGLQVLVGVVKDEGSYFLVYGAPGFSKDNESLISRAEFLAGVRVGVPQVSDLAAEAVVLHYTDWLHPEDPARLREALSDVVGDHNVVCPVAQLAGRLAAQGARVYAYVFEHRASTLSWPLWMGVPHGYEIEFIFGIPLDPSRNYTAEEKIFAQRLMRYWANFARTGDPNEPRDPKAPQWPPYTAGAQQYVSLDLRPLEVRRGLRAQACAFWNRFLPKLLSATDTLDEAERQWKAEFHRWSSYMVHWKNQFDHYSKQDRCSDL

[7] = target: Dual specificity tyrosine-phosphorylation-regulated kinase 1A (Homo sapiens, UniProt Q13627); assay: Inhibition of Dyrk1A (unknown origin) incubated for 1 hrs in presence of [gamma-33P]-ATP by microplate scintillation counter based radiometric protein kinase assay
[8] = target: Beta-secretase 1 (Homo sapiens, UniProt P56817); assay: Inhibition of human BACE-1 using (7-Methoxycoumarin-4-acetyl-[Asn670, Leu671]-Amyloid beta/A4 precursor protein 770 fragments 667-676- (2, 4-dinitrophenyl) Lys-Arg-Arg amide trifluoroacetate salt as substrate incubated for 2 hrs by FRET-based analysis
Chain of Beta-secretase 1 (P56817 whole entry, the tested form may be a part): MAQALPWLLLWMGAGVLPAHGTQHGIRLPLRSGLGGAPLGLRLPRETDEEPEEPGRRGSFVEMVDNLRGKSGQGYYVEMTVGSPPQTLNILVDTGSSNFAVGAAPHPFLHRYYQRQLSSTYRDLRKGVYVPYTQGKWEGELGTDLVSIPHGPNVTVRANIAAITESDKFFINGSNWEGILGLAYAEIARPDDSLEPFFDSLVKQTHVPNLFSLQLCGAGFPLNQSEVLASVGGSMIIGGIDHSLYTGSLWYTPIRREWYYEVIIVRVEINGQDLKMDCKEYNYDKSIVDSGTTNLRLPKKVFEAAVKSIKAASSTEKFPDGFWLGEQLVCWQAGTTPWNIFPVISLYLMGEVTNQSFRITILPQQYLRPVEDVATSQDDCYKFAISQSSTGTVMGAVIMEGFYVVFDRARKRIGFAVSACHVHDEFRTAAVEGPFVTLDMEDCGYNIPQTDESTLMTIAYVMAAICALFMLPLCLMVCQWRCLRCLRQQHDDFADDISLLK

[9] = target: Cholinesterase (Homo sapiens, UniProt P06276); assay: Inhibition of human BChE using butyrylthiocholine iodide as substrate preincubated for 30 mins followed by substrate addition by DTNB based Ellman's colorimetric method
Chain of Cholinesterase (P06276 whole entry): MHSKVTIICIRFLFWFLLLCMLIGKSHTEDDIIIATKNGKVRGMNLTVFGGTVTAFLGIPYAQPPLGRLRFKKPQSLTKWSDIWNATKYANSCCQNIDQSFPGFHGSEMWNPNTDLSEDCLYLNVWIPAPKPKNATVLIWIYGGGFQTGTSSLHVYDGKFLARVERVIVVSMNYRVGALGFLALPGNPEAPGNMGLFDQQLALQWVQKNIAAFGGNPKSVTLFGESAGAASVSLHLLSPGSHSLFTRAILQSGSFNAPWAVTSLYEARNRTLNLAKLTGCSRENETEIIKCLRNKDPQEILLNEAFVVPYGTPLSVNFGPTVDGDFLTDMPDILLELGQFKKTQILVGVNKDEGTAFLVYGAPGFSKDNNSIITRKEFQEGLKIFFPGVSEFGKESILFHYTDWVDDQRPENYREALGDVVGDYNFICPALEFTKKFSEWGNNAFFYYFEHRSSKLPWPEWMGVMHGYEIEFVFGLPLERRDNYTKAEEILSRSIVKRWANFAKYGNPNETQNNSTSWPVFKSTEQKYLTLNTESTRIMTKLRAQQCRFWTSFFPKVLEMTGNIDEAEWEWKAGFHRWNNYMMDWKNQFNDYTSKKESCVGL

[10] = tested on: SH-SY5Y; assay: (§1) Neuroprotective activity against amyloid-beta(1 to 42) induced oxidative stress in differentiated human SH-SY5Y cells assessed as increase in cell viability at 40 uM preincubated with amyloid-beta (1 to 42 ) for 24 hrs followed by compound addition and measured after 48 hrs by MTT assay relative to control; format: functional
[11] = Neurotoxicity in human SH-SY5Y cells assessed as reduction in cell population at 80 uM incubated for 24 hrs by MTT assay
[12] = tested on: SH-SY5Y; assay: as §1, with “72” for “48”; format: functional
[13] = target: Amyloid-beta precursor protein (Homo sapiens) (UniProt P05067); assay: Inhibition of human AchE-induced amyloid beta (1 to 42) (unknown origin) aggregation at 5 to 20 uM incubated for 48 hrs by Thioflavin T fluorescence assay relative to control; details: dose 5-20 µM
[14] = Permeability of compound in PBS at pH 7.4 incubated for 18 hrs by PAMPA-BBB assay
[15] = tested on: Rattus norvegicus; assay: Reversal of amyloid beta (1 to 42 residues) induced cognitive impairment in Wistar rat assessed as increase in platform crossings at 5 mg/kg, po pretreated with amyloid beta for 7 days followed by compound administration for 9 days and measured after 1 days by Morris water maze test; format: functional, organism-based; details: time 10.0 day
[16] = tested on: Rattus norvegicus; assay: (§2) Reversal of amyloid beta (1 to 42 residues) induced cognitive impairment in Wistar rat assessed as decrease in amyloid-beta level in CA3 region of hippocampus at 5 mg/kg, po pretreated with amyloid beta for 7 days followed by compound administration for 9 days and measured after 5 days by immuno histochemical analysis; format: functional, organism-based; details: time 14.0 day
[17] = tested on: Rattus norvegicus; assay: as §2, with “CA1” for “CA3”; format: functional, organism-based; details: time 14.0 day
[18] = tested on: Rattus norvegicus; assay: (§3) Reversal of amyloid beta (1 to 42 residues) induced cognitive impairment in Wistar rat assessed as decrease in APP protein level at 5 mg/kg, po pretreated with amyloid beta for 7 days followed by compound administration for 9 days and measured after 5 days by Western blot analysis; format: functional, organism-based; details: time 14.0 day
[19] = tested on: Rattus norvegicus; assay: (§4) Antialzheimer activity against scopolamine-induced amnesia in male Wistar rat model assessed as increase in total arm enteries at 5 mg/kg, po preadministered with compound for 30 mins starting from 7 th day trail followed by scopolamine administration and measured after 5 mins by Y maze test; format: functional, organism-based; details: time 35.0 min
[20] = tested on: Rattus norvegicus; assay: as §2, with “DG” for “CA3”; format: functional, organism-based; details: time 14.0 day
[21] = tested on: Rattus norvegicus; assay: Reversal of amyloid beta (1 to 42 residues) induced cognitive impairment in Wistar rat assessed as decrease in Tau protein level at 5 mg/kg, po pretreated with amyloid beta for 7 days followed by compound administration for 9 days and measured after 5 days by Western blot analysis; format: functional, organism-based; details: time 14.0 day
[22] = tested on: Rattus norvegicus; assay: as §2, with “reduction” for “decrease”, “appearance of pyknotic neuron bodies” for “amyloid-beta level”, “in” for “in CA3 region of”, “Nissl's staining based” for “immuno histochemical”; format: functional, organism-based; details: time 14.0 day
[23] = tested on: Rattus norvegicus; assay: as §4, with “restoration of memory function by measuring percentage spontaneous alteration” for “increase in total arm enteries”; format: functional, organism-based; details: time 35.0 min
[24] = tested on: Rattus norvegicus; assay: as §2, with “BACE-1” for “amyloid-beta”; format: functional, organism-based; details: time 14.0 day
[25] = tested on: Rattus norvegicus; assay: Reversal of amyloid beta (1 to 42 residues) induced cognitive impairment in Wistar rat assessed as decrease in BACE-1 protein level at 5 mg/kg, po pretreated with amyloid beta for 7 days followed by compound administration for 9 days and measured after 5 days by Western blot analysis; format: functional, organism-based; details: time 14.0 day
[26] = tested on: Rattus norvegicus; assay: as §2, with “reduction” for “decrease”, “neural dispersion at DG region” for “amyloid-beta level”, “in” for “in CA3 region of”, “Nissl's staining based” for “immuno histochemical”; format: functional, organism-based; details: time 14.0 day
[27] = tested on: Rattus norvegicus; assay: Reversal of amyloid beta (1 to 42 residues) induced cognitive impairment in Wistar rat assessed as reduction in escape latency time at 5 mg/kg, po pretreated with amyloid beta for 7 days followed by compound administration for 9 days and measured after 5 days by Morris water maze test; format: functional, organism-based; details: time 14.0 day
[28] = tested on: Rattus norvegicus; assay: as §2, with “BACE-1” for “amyloid-beta”, “DG” for “CA3”; format: functional, organism-based; details: time 14.0 day
[29] = tested on: Rattus norvegicus; assay: as §2, with “BACE-1” for “amyloid-beta”, “CA1” for “CA3”; format: functional, organism-based; details: time 14.0 day
[30] = tested on: Rattus norvegicus; assay: Reversal of amyloid beta (1 to 42 residues) induced cognitive impairment in Wistar rat assessed as increase in platform crossings at 5 mg/kg, po pretreated with amyloid beta for 7 days followed by compound administration for 9 days and measured after 5 days by Morris water maze test; format: functional, organism-based; details: time 14.0 day
[31] = tested on: Rattus norvegicus; assay: as §3, with “reduction” for “decrease”, “focal gliosis in cerebral cortex” for “APP protein level”, “Nissl's staining based” for “Western blot”; format: functional, organism-based; details: time 14.0 day
[32] = tested on: Rattus norvegicus; assay: Reversal of amyloid beta (1 to 42 residues) induced cognitive impairment in Wistar rat assessed as decrease in alpha-synuclein protein level at 5 mg/kg, po pretreated with amyloid beta for 7 days followed by compound administration for 9 days and measured after 5 days by Western blot analysis; format: functional, organism-based; details: time 14.0 day
[33] = tested on: Rattus norvegicus; assay: Reversal of amyloid beta (1 to 42 residues) induced cognitive impairment in Wistar rat assessed as reduction in escape latency time at 5 mg/kg, po pretreated with amyloid beta for 7 days followed by compound administration for 9 days and measured after 1 days by Morris water maze test; format: functional, organism-based; details: time 10.0 day

Chain of Amyloid-beta precursor protein (Homo sapiens) (P05067 whole entry): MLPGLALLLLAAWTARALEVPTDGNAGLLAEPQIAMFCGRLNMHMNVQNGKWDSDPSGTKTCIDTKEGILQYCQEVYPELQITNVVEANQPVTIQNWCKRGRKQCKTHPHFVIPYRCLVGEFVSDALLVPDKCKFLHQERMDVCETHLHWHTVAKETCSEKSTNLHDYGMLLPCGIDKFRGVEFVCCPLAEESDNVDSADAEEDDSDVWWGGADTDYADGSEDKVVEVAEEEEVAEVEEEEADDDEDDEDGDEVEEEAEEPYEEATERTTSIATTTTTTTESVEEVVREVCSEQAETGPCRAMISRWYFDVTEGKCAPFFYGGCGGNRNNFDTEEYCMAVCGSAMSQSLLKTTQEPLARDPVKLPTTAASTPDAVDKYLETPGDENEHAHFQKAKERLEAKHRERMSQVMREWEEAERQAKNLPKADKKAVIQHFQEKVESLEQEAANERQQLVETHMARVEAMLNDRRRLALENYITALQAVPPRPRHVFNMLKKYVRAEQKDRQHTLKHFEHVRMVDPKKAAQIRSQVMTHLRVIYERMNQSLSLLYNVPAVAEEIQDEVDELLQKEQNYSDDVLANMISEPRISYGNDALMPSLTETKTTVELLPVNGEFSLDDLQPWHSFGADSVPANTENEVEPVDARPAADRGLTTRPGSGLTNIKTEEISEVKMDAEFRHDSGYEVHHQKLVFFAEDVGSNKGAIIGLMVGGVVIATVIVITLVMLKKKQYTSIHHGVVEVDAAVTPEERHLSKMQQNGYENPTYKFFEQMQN

Row | SMILES | IC50 [6] | IC50 [7] | IC50 [8] | IC50 [9] | also measured
1 | COc1cc(/C=C/C(=O)CC(=O)/C=C/c2ccc(O)c(OC)c2)ccc1O |  |  |  |  | inhibition [1]: Active; Activity [2]: 206 nm; inhibition [3]: Active; inhibition [4]: 21.5%; inhibition [5]: Active
2 | O=C(Cn1nc(-c2ccccc2)c(-c2ccccc2)nc1=O)Nc1ccccc1Cl | 719 nM | > 10000 nM | 609 nM | > 10000 nM | 
3 | N#Cc1cccc(NC(=O)Cn2nc(-c3ccccc3)c(-c3ccccc3)nc2=O)c1 | 1250 nM | > 10000 nM | 1100 nM | > 10000 nM | 
4 | O=C(Cn1nc(-c2ccccc2)c(-c2ccccc2)nc1=O)Nc1ccc(Br)cc1 | 941 nM | > 10000 nM | 1860 nM | > 10000 nM | 
5 | O=C(Cn1nc(-c2ccccc2)c(-c2ccccc2)nc1=O)Nc1ccc(F)cc1F | 1160 nM | > 10000 nM | 1440 nM | > 10000 nM | 
6 | O=C(Cn1nc(-c2ccccc2)c(-c2ccccc2)nc1=O)Nc1ccccc1O | 753 nM | > 10000 nM | 953 nM | > 10000 nM | 
7 | O=C(Cn1nc(-c2ccccc2)c(-c2ccccc2)nc1=O)Nc1ccc(O)cc1 | 1150 nM | > 10000 nM | 1620 nM | > 10000 nM | 
8 | O=C(Cn1nc(-c2ccccc2)c(-c2ccccc2)nc1=O)Nc1ccccc1[N+](=O)[O-] | 734 nM | > 10000 nM | 912 nM | > 10000 nM | 
9 | O=C(Cn1nc(-c2ccccc2)c(-c2ccccc2)nc1=O)Nc1ccc(Cl)cc1 | 1410 nM | > 10000 nM | 1930 nM | > 10000 nM | 
10 | Cc1ccccc1NC(=O)Cn1nc(-c2ccccc2)c(-c2ccccc2)nc1=O | 953 nM | > 10000 nM | 742 nM | > 10000 nM | 
11 | O=C(Cn1nc(-c2ccccc2)c(-c2ccccc2)nc1=O)Nc1cccc([N+](=O)[O-])c1 | 1120 nM | > 10000 nM | 1250 nM | > 10000 nM | 
12 | O=C(Cn1nc(-c2ccccc2)c(-c2ccccc2)nc1=O)Nc1cc(Br)cc(Br)c1 | 772 nM | > 10000 nM | 1250 nM | > 10000 nM | 
13 | N#Cc1ccccc1NC(=O)Cn1nc(-c2ccccc2)c(-c2ccccc2)nc1=O | 1860 nM | > 10000 nM | 1480 nM | > 10000 nM | 
14 | COc1cc(NC(=O)Cn2nc(-c3ccccc3)c(-c3ccccc3)nc2=O)cc(OC)c1OC | 708 nM | > 10000 nM | 648 nM | > 10000 nM | Activity [10]: 71%; Activity [11]: Non-Toxic; Activity [12]: 78%; inhibition [13]: 33.6%; inhibition [4]: 19.3%; Papp at 18 h [14]: 5.81 ×10⁻⁶ cm/s
15 | O=C(Cn1nc(-c2ccccc2)c(-c2ccccc2)nc1=O)Nc1cccc(Cl)c1 | 1160 nM | > 10000 nM | 1440 nM | > 10000 nM | 
16 | COc1cc2c(cc1OC)C(=O)C(CC1CCN(Cc3ccccc3)CC1)C2 (centres undefined) [DONEPEZIL] |  |  |  |  | Activity [15]: inactive; Activity [16]: Active; Activity [17]: Active; Activity [18]: Active; Activity [19]: Active; Activity [20]: Active; Activity [21]: Active; Activity [22]: Active; Activity [23]: Active; Activity [24]: Active; Activity [11]: Non-Toxic; Activity [25]: Active; Activity [26]: Active; Activity [27]: Active; Activity [28]: Active; Activity [29]: Active; Activity [30]: Active; Activity [31]: Active; Activity [32]: Active; Activity [33]: inactive
17 | O=C(Cn1nc(-c2ccccc2)c(-c2ccccc2)nc1=O)Nc1ccc([N+](=O)[O-])cc1 | 1070 nM | > 10000 nM | 1320 nM | > 10000 nM | 
18 | O=C(Cn1nc(-c2ccccc2)c(-c2ccccc2)nc1=O)Nc1ccc(F)cc1 | 836 nM | > 10000 nM | 694 nM | > 10000 nM | 
19 | O=C(Cn1nc(-c2ccccc2)c(-c2ccccc2)nc1=O)Nc1ccc([N+](=O)[O-])cc1Cl | 699 nM | 2000 nM | 1830 nM | > 10000 nM | 

Reference: ChEMBL document CHEMBL5500364, “Design, synthesis, and biological evaluation of some 2-(3-oxo-5,6-diphenyl-1,2,4-triazin-2(3H)-yl)-N-phenylacetamide hybrids as MTDLs for Alzheimer's disease therapy” (Eur J Med Chem, 2024)
